Source: patent US12629358B2, “Compound used as RET kinase inhibitor and application thereof” (TYK MEDICINES, INC., priority 2019, dated 2026)
Changes are numbered by the printed parent chain. pIC50: −log10 of the molar value. Blank lines part the entries; values can stand above or below the molecule they belong to.

What was measured:
[1] = target: wild-type RET kinase (Homo sapiens, UniProt P07949); test: Enzyme activity test against wild-type RET kinase (33P-ATP filter-binding kinase activity assay); format: biochemical; settings: ATP Km concentration, 10 concentrations
Method: A biological activity test experiment was conducted below for some compounds of the above Examples and Comparative Example.
[…]. The biological activity screening of the compounds will be determined repeatedly at 10 concentrations.
Each sample was prepared into a solution with a concentration of 10 mM.
The test compound was dissolved in 100% dimethyl sulfoxide to a specific concentration. Integra Viaflo Assist was used to assist DMSO for (continuous) dilution.
Kinase was added to the newly prepared basic reaction buffer
Adding any desired cofactors to the substrate solution.
Adding wild-type RET kinase into the substrate solution and gently mixing;
Acoustic technology (Echo 550; Nanoliter range) was used to feed the compounds in 100% of dimethyl sulfoxide into the kinase reaction mixture and incubated at room temperature for 20 minutes.
33P-ATP (specific activity 10 Ci/l) was added to the reaction mixture to start the reaction.
Incubated at room temperature for 2 hours
Radioactivity was detected by filter-binding method.
Kinase activity data was expressed as the percentage of remaining kinase activity in the test sample compared to the vehicle (dimethyl sulfoxide) reaction. Prism (GRAPHPAD software) was used to obtain IC50 value and curve-fitting.

[2] = Metabolism test of drugs: plasma pharmacokinetics after intravenous and intragastric administration; format: in vivo; settings: male, rat, SD rats, PO, 10 mg/kg, plasma
Method: Four small molecule compounds of BLU-667, compound C2, compound C4 and compound C8 were administered to SD rats by intravenous and intragastric administration respectively. Blood samples were collected at different time points to determine the concentration of drugs in plasma after administration and calculate the related pharmacokinetics parameters.
The vehicle of BLU-667, C2, C4 and C8 was 10% NMP+49% PEG400+1% Tween80+40% Water. The specific preparation method was as follows: proper amount of tested samples was weighed, dissolved in 10% NMP+49% PEG400+1% Tween80+40% Water, mixed well by vortex for later use.
LC-MS/MS was used by the analysis department of the experimental organization to detect and analyze the prepared solution of sample for test.
Healthy male SD rats were used in this research. Animal weight: 150-200 g. All animals fasted before administration, and resumed feeding 4 hours after administration.
Time points for blood collection were: • Intravenous administration (groups 1, 3 and 5): 0.0833, 0.25, 0.5, 1, 2, 4, 8, 12 and 24 hours after administration. (±2 min at time point ≤2 hr, ±15 min at other points.) • Oral administration: (groups 2, 4, 6 and 7): 0.25, 0.5, 1, 2, 4, 8, 12 and 24 hours after administration. (±2 m at time point […] at other points.)
About 0.1 mL of blood was collected from each animal through jugular vein every time, and EDTA or heparin sodium was used as anticoagulant. Blood samples were collected and placed on ice, and plasma was separated by centrifugation (centrifugation conditions: 5000 r/min, 6 min, 4° C.).
LC-MS/MS was used by the analysis department of the experimental organization to analyze the plasma samples of rats.
According to the data of blood drug concentration of the drug, the pharmacokinetic parameters AUC0→t, AUC0→∞, MRT0→∞, CMax, TMax, Vss, F, CL and T1/2 as well as their mean and standard deviation of the samples for test were calculated respectively by pharmacokinetic calculation software WinNonlin non-compartment model.
The main pharmacokinetic parameters of BLU-667, compound C2, compound C4 and compound C8 in plasma after intravenous and single oral administration of BLU-667, compound C2, compound C4 and compound C8 in SD rats were shown in Table 3

[3] = target: T1, Ba/F3-KIF5B-RET-V804M cells (Homo sapiens, UniProt P07949, V804M); test: Cell anti-proliferation experiment (CellTiter-Glo), Ba/F3-KIF5B-RET-V804M; format: cell-based; settings: cell viability, 72 h
T1 construct: host or cells: Ba/F3 (BaF3 from RIKEN BRC CELL BANK); the other entry of the earlier key: KIF5B (P33176, Kinesin-1 heavy chain)
T1 sequence (P07949 713-1063 V804M limits assumed): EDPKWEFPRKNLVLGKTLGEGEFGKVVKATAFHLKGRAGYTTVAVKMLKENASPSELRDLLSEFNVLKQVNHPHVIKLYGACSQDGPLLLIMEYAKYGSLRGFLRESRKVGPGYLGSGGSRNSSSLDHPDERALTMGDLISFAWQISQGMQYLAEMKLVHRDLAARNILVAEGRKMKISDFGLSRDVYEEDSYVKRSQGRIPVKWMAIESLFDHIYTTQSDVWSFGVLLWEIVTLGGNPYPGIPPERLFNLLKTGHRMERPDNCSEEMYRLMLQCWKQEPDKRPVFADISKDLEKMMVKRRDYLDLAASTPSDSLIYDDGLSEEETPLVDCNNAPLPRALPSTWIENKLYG
Method: (§1) Ba/F3-KIF5B-RET, Ba/F3-KIF5B-RET-V804L and Ba/F3-KIF5B-RET-V804M cells were constructed by PreceDo Pharmaceuticals Co., Ltd.
(§2) Ba/F3-KIF5B-RET, Ba/F3-KIF5B-RET-V804L and Ba/F3-KIF5B-RET-V804M medium: RPMI-1640+10% FBS+1% P/S.
(§3) A 1000× solution of the compound was prepared with DMSO, the compound was diluted to 20 times final concentration with a growth medium, and […] was added.
(§4) The suspended cells were rotated downward, resuscitated in the growth medium, and then counted with a cell counter. The cell suspension was diluted to the desired concentration in the growth medium. 95p L cell suspension was fed to a 96-well plate. 5 μL of 20× compound was added to the […], and the final DMSO concentration per well was 0.1%; incubated at 37° C. with 5% CO2 for 72 h
(§5) The plate was equilibrated to room temperature before measurement, 50 μl of CellTiter-Glo® reagent was added into each well, mixed on a shaker for 2 minutes, incubated at room temperature for 10 minutes, and recorded with Paradigm.
(§6) Cell viability was analyzed using Graphpad 7.0 software according to the formula Cell viability (CV %)=(RLU compound−RLU blank)/(RLU control−RLU blank)*100%, and the corresponding IC50 data were calculated as shown in Table 2

[4] = target: T2, Ba/F3-KIF5B-RET-V804L cells (Homo sapiens, UniProt P07949, V804L); test: Cell anti-proliferation experiment (CellTiter-Glo), Ba/F3-KIF5B-RET-V804L; format: cell-based; settings: cell viability, 72 h
T2 construct: host or cells: Ba/F3 (BaF3 from RIKEN BRC CELL BANK); the other entry of the earlier key: KIF5B (P33176, Kinesin-1 heavy chain)
T2 sequence (P07949 713-1063 V804L limits assumed): T1 sequence (P07949 713-1063 V804M limits assumed) with M92L
Method: as §1, §2, §3, §4, §5, §6

[5] = target: T3, Ba/F3-KIF5B-RET cells (Homo sapiens, UniProt P07949); test: Cell anti-proliferation experiment (CellTiter-Glo), Ba/F3-KIF5B-RET; format: cell-based; settings: cell viability, 72 h
T3 construct: host or cells: Ba/F3 (BaF3 from RIKEN BRC CELL BANK); the other entry of the earlier key: KIF5B (P33176, Kinesin-1 heavy chain)
T3 sequence (P07949 713-1063 limits assumed): T1 sequence (P07949 713-1063 V804M limits assumed) with M92V
Method: as §1, §2, §3, §4, §5, §6

wild-type RET kinase, sequence (P07949 29-1114): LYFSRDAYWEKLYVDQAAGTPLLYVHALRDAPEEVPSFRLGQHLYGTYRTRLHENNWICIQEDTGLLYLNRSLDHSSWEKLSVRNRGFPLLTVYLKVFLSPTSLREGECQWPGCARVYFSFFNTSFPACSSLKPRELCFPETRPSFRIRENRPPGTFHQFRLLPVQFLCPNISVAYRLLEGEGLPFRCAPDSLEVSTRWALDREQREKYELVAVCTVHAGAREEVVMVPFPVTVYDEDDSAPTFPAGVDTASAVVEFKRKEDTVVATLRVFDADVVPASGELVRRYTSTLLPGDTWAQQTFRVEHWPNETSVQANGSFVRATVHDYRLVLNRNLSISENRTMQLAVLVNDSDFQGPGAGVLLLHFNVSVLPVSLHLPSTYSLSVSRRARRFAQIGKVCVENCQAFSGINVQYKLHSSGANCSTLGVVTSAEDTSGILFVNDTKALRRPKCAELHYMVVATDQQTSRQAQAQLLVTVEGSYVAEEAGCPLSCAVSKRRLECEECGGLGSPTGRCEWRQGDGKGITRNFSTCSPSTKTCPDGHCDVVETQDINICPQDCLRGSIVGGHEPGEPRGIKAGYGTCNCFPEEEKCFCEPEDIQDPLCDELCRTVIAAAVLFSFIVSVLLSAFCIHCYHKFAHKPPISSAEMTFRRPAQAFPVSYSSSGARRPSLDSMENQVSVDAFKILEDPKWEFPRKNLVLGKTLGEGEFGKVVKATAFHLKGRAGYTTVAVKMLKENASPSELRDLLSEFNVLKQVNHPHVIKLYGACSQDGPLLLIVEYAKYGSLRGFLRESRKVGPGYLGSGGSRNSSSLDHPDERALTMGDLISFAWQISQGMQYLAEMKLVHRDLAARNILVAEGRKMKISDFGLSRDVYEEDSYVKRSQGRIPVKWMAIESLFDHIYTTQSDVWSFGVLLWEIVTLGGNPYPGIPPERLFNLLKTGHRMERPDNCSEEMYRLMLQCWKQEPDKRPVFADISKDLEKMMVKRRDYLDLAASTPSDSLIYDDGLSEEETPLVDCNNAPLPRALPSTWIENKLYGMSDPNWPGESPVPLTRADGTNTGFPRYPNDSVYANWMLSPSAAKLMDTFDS

Compound: COC1(C(=O)N[C@@H](C)c2ccc(-n3cc(F)cn3)nc2)CC=C(c2ccc(C#N)c(Nc3cc(C)[nH]n3)n2)CC1 (stereo partly shown) [Comparative Example C32, reference compound]
Wild-RET IC50 [1]: no activity

Compound: CO[C@]1(C(=O)N[C@@H](C)c2ccc(-n3cc(F)cn3)nc2)CC[C@@H](c2nc(Nc3cc(C)[nH]n3)ccc2C#N)CC1 [Compound C1]
pIC50 [1]: 6.84

Compound: CO[C@]1(C(=O)N[C@@H](C)c2ccc(-n3cc(F)cn3)nc2)CC[C@@H](c2nc(Nc3cc(C)[nH]n3)cc3cccnc32)CC1 [Compound C3]
pIC50 [1]: 6.62

Compound: CO[C@]1(C(=O)N[C@@H](C)c2ccc(-n3cc(F)cn3)nc2)CC[C@H](c2nc(Nc3cc(C)[nH]n3)cc3nccnc32)CC1 [Compound C14]
pIC50 [3]: 6.96 | pIC50 [4]: 7.33 | pIC50 [5]: 7.27

Compound: CO[C@]1(C(=O)N[C@@H](C)c2ccc(-n3cc(F)cn3)nc2)CC[C@H](c2nc(Nc3cc(C)[nH]n3)c3ccccc3n2)CC1 [Compound C15]
pIC50 [3]: 8.13 | pIC50 [4]: 8.55 | pIC50 [5]: 8.34

Compound: CO[C@]1(C(=O)N[C@@H](C)c2ccc(-n3cnc(Cl)n3)nc2)CC[C@H](c2nc(Nc3cc(C)[nH]n3)cc3cccnc32)CC1 [Compound C24]
pIC50 [3]: 6.74 | pIC50 [4]: 7.08 | pIC50 [5]: 7.02

Compound: CO[C@]1(C(=O)N[C@@H](C)c2cnc(-n3cc(F)cn3)cn2)CC[C@H](c2nc(Nc3cc(C)[nH]n3)cc3cccnc32)CC1 [Compound C26]
pIC50 [3]: 8.10 | pIC50 [4]: 8.54 | pIC50 [5]: 8.28

Compound: CO[C@]1(C(=O)N[C@@H](C)c2ccc(-n3cc(F)cn3)nn2)CC[C@H](c2nc(Nc3cc(C)[nH]n3)cc3cccnc32)CC1 [Compound C27]
pIC50 [3]: 7.28 | pIC50 [4]: 7.64 | pIC50 [5]: 7.53

Compound: CO[C@]1(C(=O)N[C@@H](C)c2ccc(-n3cnc(C)n3)nc2)CC[C@H](c2nc(Nc3cc(C)[nH]n3)cc3cccnc32)CC1 [Compound C29]
pIC50 [3]: 6.60 | pIC50 [4]: 6.93 | pIC50 [5]: 6.84

Continued, values first:

pIC50 [1]: 7.00
Compound: CO[C@]1(C(=O)N[C@@H](C)c2ccc(-n3cc(F)cn3)nc2)CC[C@@H](c2nc(Nc3cc(C)[nH]n3)cc3c2N(C)CCC3)CC1 [Compound C5]

pIC50 [1]: 8.45
Compound: CO[C@]1(C(=O)N[C@@H](C)c2ccc(-n3cc(F)cn3)nc2)CC[C@H](c2nc(Nc3cc(C)[nH]n3)cc3c2N(C)CCC3)CC1 [Compound C6]

pIC50 [1]: 8.27
Compound: COC1(C(=O)N[C@@H](C)c2ccc(-n3cc(F)cn3)nc2)CC=C(c2nc(Nc3cc(C)[nH]n3)ccc2C#N)CC1 (stereo partly shown) [Compound C7]

pIC50 [1]: 8.82 | AUC(0-inf) [2]: 2.83 µg·h/mL | AUC(0-t) [2]: 2.8 µg·h/mL | Cmax [2]: 0.824 µg/mL | Tmax [2]: 2 h | half-life [2]: 1.95 h | MRT ([2]; read-out: MRTINF_ obs): 2.85 h
Compound: COC1(C(=O)N[C@@H](C)c2ccc(-n3cc(F)cn3)nc2)CC=C(c2nc(Nc3cc(C)[nH]n3)cc3cccnc23)CC1 (stereo partly shown) [Compound C8]

pIC50 [1]: 8.47
Compound: CO[C@]1(C(=O)N[C@@H](C)c2ccc(-n3cc(F)cn3)nc2)CC[C@H](c2nc(Nc3cc(C)[nH]n3)c(F)cc2C#N)CC1 [Compound C9]

pIC50 [1]: 6.58
Compound: CO[C@]1(C(=O)N[C@@H](C)c2ccc(-n3cc(F)cn3)nc2)CC[C@@H](c2nc(Nc3cc(C)[nH]n3)c(F)cc2C#N)CC1 [Compound C10]

pIC50 [1]: 7.76
Compound: COC1(C(=O)N[C@@H](C)c2ccc(-n3cc(F)cn3)nc2)CC=C(c2nc(Nc3cc(C)[nH]n3)c(F)cc2C#N)CC1 (stereo partly shown) [Compound C11]

pIC50 [1]: 7.79
Compound: COC1(C(=O)N[C@@H](C)c2ccc(-n3cc(F)cn3)nc2)CC=C(c2nc(Nc3cc(C)[nH]n3)cnc2C#N)CC1 (stereo partly shown) [Compound C12]

pIC50 [1]: 8.68
Compound: CO[C@]1(C(=O)N[C@@H](C)c2ccc(-n3cc(F)cn3)nc2)CC[C@H](c2nc(Nc3cc(C)[nH]n3)cnc2C#N)CC1 [Compound C13]

pIC50 [1]: 6.74
Compound: CO[C@]1(C(=O)N[C@@H](C)c2ccc(-n3cc(F)cn3)nc2)CC[C@@H](c2nc(Nc3cc(C)[nH]n3)cc(C)c2C#N)CC1 [Compound C16]

pIC50 [1]: 8.90
Compound: CO[C@]1(C(=O)N[C@@H](C)c2ccc(-n3cc(F)cn3)nc2)CC[C@H](c2nc(Nc3cc(C)[nH]n3)cc(C)c2C#N)CC1 [Compound C17]

pIC50 [1]: 8.82
Compound: CO[C@]1(C(=O)N[C@@H](C)c2ccc(-n3cc(F)cn3)nc2)CC[C@H](c2nc(Nc3cc(C)[nH]n3)cc3c2C(=O)NCC3)CC1 [Compound C18]

pIC50 [1]: 7.19
Compound: CO[C@]1(C(=O)N[C@@H](C)c2ccc(-n3cc(F)cn3)nc2)CC[C@@H](c2nc(Nc3cc(C)[nH]n3)cc3c2C(=O)NCC3)CC1 [Compound C19]
